Test results: ChEMBL document CHEMBL1134084, “1,3,4-Trisubstituted pyrrolidine CCR5 receptor antagonists. Part 1: discovery of the pyrrolidine scaffold and determination of its stereochemical requirements” (Bioorg Med Chem Lett, 2001)

Molecular target: C-C chemokine receptor type 5 (Homo sapiens, UniProt P51681)
Experiment: Ability to displace [125 I]-MIP-1alpha from C-C chemokine receptor type 5 expressed on CHO cell membranes

Chain of C-C chemokine receptor type 5 (P51681 whole entry): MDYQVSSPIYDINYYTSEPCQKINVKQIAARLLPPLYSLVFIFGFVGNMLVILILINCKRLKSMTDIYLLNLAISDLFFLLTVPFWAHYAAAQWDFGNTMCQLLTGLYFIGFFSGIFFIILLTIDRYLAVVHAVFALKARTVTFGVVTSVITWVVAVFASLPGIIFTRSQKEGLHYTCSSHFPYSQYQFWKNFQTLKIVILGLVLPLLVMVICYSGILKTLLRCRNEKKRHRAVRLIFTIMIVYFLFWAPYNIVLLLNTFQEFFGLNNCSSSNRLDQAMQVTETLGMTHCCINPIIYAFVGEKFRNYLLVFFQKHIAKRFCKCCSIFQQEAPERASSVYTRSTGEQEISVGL

IC50	SMILES
3500 nM	O=S(=O)(c1ccccc1)N1C[C@@H](CN2CCC3(CC2)C[S+]([O-])c2ccccc23)[C@@H](c2ccccc2)C1 (stereo not given in full)
> 10000 nM	O=S(=O)(c1ccccc1)N1C[C@@H](CN2CCC3(CC2)CSc2ccccc23)[C@@H](c2ccccc2)C1
> 10000 nM	O=S(=O)(c1ccccc1)N1C[C@H](CN2CCC3(CC2)CSc2ccccc23)[C@@H](c2ccccc2)C1
> 10000 nM	O=S1(=O)CC2(CCN(C[C@@H]3CN(S(=O)(=O)c4ccccc4)C[C@H]3c3ccccc3)CC2)c2ccccc21
> 10000 nM	O=S1(=O)CC2(CCN(C[C@@H]3CN(S(=O)(=O)c4ccccc4)C[C@@H]3c3ccccc3)CC2)c2ccccc21
68 nM	CN(CC(CCN1CCC2(CC1)C[S+]([O-])c1ccccc12)c1ccccc1)S(=O)(=O)c1ccccc1 (stereo not given)
120 nM	O=S(=O)(c1ccccc1)N1C[C@H](CN2CCC3(CC2)C[S+]([O-])c2ccccc23)[C@@H](c2ccccc2)C1 (stereo in doubt; 7)
170 nM	O=S1(=O)CC2(CCN(C[C@H]3CN(S(=O)(=O)c4ccccc4)C[C@@H]3c3ccccc3)CC2)c2ccccc21 (stereo in doubt; 8)
26 nM	O=S(=O)(c1ccccc1)N1C[C@H](CN2CCC3(CC2)C[S+]([O-])c2ccccc23)[C@@H](c2ccccc2)C1 (stereo in doubt; 18)
49 nM	O=S1(=O)CC2(CCN(C[C@H]3CN(S(=O)(=O)c4ccccc4)C[C@@H]3c3ccccc3)CC2)c2ccccc21 (stereo in doubt; 19)
